# Reference: patent US8592421B2, “Cyclic bioisosters of purine system derivatives and a pharmaceutical composition based thereon” (priority 2003, dated 2013)
# What was measured:
# [1] = Morphine abstinence model: nitrites/nitrates NOX− in blood plasma, liver and brain; format: in vivo, rats Wistar; conditions: 20.0 mg/kg intramuscularly; for Nitrites in liver: control 0.260 ± 0.023; for Nitrites in brain: Cortex of cerebrum: control 4.63 ± 0.29; for Nitrites in brain: Mesencephalon: control 5.66 ± 0.19; for Nitrites in brain: Hypothalamus: control 6.57 ± 0.50; for Nitrites in blood plasma: control 18.30 ± 2.14
# Experimental: (§1) The experiments were carried out on rats in series of 7 animals on each compound according to the invention. Non-morphinized animal with not administered with compounds according to the invention were used as a control group. […] Then the rats were decapitated, the blood from somnolent arteries was collected in test tubes with solution EDTA as an anticoagulant, centrifuged at 1500 g for 15 minutes at 4° C.
# To estimate the intensity of metabolism of nitrogen oxide in rats, quantitative determination of stable metabolites of nitrogen oxide—nitrites and nitrates NOX^− in the blood plasma, supernatanates of the liver and thymus gland, a study was conducted by a spectrometric method, and in the brain supernatanates by a […] method.
# The spectrometric method is based the reaction of nitrites with the Griss reagent (a mixture of 2% solution of sulfanilamide and 0.2% N-(1-naphthyl)ethylene diamine. At the first step the nitrite reacts with sulfanilamide with formation of diazonium salt, and then with the second component to form azo dye with an adsorption maximum at 540 nm. For reduction of nitrates into nitrites, a fermentative method was used with bacterial reductase nitrate (Grisham M. B. et al., 1995). The samples of plasma and supernathant of the liver deproteinizated at 100° C. for 5 minutes incubated for 30 minutes at 37° C. in 50.0 mM of HEPES pH 7.4 in the presence of 0.2 unit/ml of Aspergillus reductase nitrate, 5.0 mkM of FAD and 0.1 mM of NAD-Ph. At the end of the reaction lactate dehydrogenase and pyruvate were added for isolation of NAD-Ph interfering with the Griss reaction. Then the Griss reagent was added and after 10-minute incubation the light absorption of the samples was measured at 540 nm. To amount of NOX^− was calculated using sodium nitrate as a standard.
# The fluorometric method is based on calculation of the nitrite level by the intensity fluorescence of 2,3-diaminonaphthotriazole, a product of reaction of 2,3-diaminonaphthalene (DAN) and nitrite in an acidic medium (Misko T. R., Schilling R. J., Salvemini D. et al. “A fluorometric assay for the measurement of nitrite of biological samples”. Anal. Biochem., 1993, v. 214, p. 11-16). The brain supernatants deproteinizated at 100° C. were placed in a nitrite regenerating system containing 0.125 unit/ml of nitrate reductases, 25 mkM NADPh and 25 mkM FAD prepared in a 20-mM Tris-HCl buffer with pH 7.6 and incubated for 30 minutes at 37° C. The lactate dehydrogenase/pyruvate system was used for oxidation of the NADPh. Then 316 mkM of the DAN solution in 0.62 M of hydrochloric acids were added and the mixture was incubated for 10 minutes in darkness.
# 280 mM of NaOH were added for stabilization of the fluorescence of the formed 2,3-diaminonaphthotriazole. The fluorescence intensity was measured in the spectrofluorimeter Hitachi F-3000 at a wavelength of excitation of 365 nm and an emission of 405 nm. The concentration of NOX^− in the brain was calculated by means of a standard solution of sodium nitrate.
# [2] = Chronic toxicity of suppositories: indexes of urine; format: in vivo, rats; conditions: rats, suppositories rectal, 1 month after administration
# Experimental: The experiments were conducted on inbred rats.
# [3] = tested on: synthase of nitrogen oxide (NOC); test: Morphine abstinence model: activity of synthase of nitrogen oxide (NOC), radiometric [3H]L-citrulline method; format: in vivo, rats Wistar; conditions: 20.0 mg/kg intramuscularly; for Activity of NOC: Mesencephalon: control 2.18 ± 0.09; for Activity of NOC: Hypothalamus: control 5.37 ± 0.20
# [4] = Morphine abstinence model: indicator enzymes ALT, AST, γ-GTP in blood plasma; conditions: 20.0 mg/kg intramuscularly three times a day; for γ-GTP in blood plasma, Ci: control 6.261 ± 1.80; for ALT in blood plasma, Ci: control 106.76 ± 111.35; for AST in blood plasma, Ci: control 179.881 ± 11.94
# Experimental: as §1
# To estimate possible hepatoprotective action of the compounds according to the invention under conditions of development of an oxidizing stress in the liver cells, effect of these compounds on the most important biochemical blood indexes, in particular, on the content in blood plasma of indicator enzyme of aspartateaminotransferase (AST), alanineaminotransferase (ALT), γ-glutamiletranspeptidase (γ-GTP) was investigated. The content of enzymes was estimated by their catalyzing activity in blood plasma.
# The activity of AST, ALT and γ-GTP was determined by means of diagnostic sets DiaSys, Germany.
smiles,measurement,setting,value
"Nc1cccc2c(=O)[nH][nH]c(=O)c12.[Na] [Compound 15, sodium salt of 5-amino-benzo[d]-3H-pyridazine-1,4-dione]",Nitrites in liver,[1]; Control + Compound,0.259 ± 0.019 nmol/mg of protein
same,Nitrites in brain: Cortex of cerebrum,[1]; Control + Compound,4.31 ± 0.37 nmol/mg of protein
same,Nitrites in brain: Mesencephalon,[1]; Control + Compound,6.65 ± 0.70 nmol/mg of protein
same,Nitrites in brain: Hypothalamus,[1]; Control + Compound,6.77 ± 0.83 nmol/mg of protein
same,Nitrites in blood plasma,[1]; Control + Compound,14.39 ± 0.84 mkmol/ml
same,Nitrites in liver,[1]; Control + Morphine + compound,0.285 ± 0.02 nmol/mg of protein
same,Nitrites in brain: Cortex of cerebrum,[1]; Control + Morphine + compound,4.72 ± 0.37 nmol/mg of protein
same,Nitrites in brain: Mesencephalon,[1]; Control + Morphine + compound,5.50 ± 0.43 nmol/mg of protein
same,Nitrites in brain: Hypothalamus,[1]; Control + Morphine + compound,6.57 ± 0.88 nmol/mg of protein
same,Nitrites in blood plasma,[1]; Control + Morphine + compound,13.91 ± 1.91 mkmol/ml
same,Bilirubin (urine),[2]; dose 50 mg/kg,<5 Mkmol/l
same,Glucose (urine),[2]; dose 50 mg/kg,<6 mmol/L
same,Ketone bodies (urine),[2]; dose 50 mg/kg,<1 mmol/L
same,Potassium (urine),[2]; dose 50 mg/kg,5.28 ± 1.5 g/L
same,Protein (urine),[2]; dose 50 mg/kg,0.71 ± 0.274 g/L
same,Sodium (urine),[2]; dose 50 mg/kg,1.2 ± 0.4 g/L
same,Urea (urine),[2]; dose 50 mg/kg,413 ± 128 mmol/L
same,Urobilinogen (urine),[2]; dose 50 mg/kg,<17 Mkmol/l
same,pH (urine),[2]; dose 50 mg/kg,6.3 ± 0.4
same,Bilirubin (urine),[2]; dose 500 mg/kg,<5 Mkmol/l
same,Glucose (urine),[2]; dose 500 mg/kg,<6 mmol/L
same,Ketone bodies (urine),[2]; dose 500 mg/kg,<1 mmol/L
same,Potassium (urine),[2]; dose 500 mg/kg,6.13 ± 1.6 g/L
same,Protein (urine),[2]; dose 500 mg/kg,0.87 ± 0.24 g/L
same,Sodium (urine),[2]; dose 500 mg/kg,0.64 ± 0.4 g/L
same,Urea (urine),[2]; dose 500 mg/kg,485 ± 131 mmol/L
same,Urobilinogen (urine),[2]; dose 500 mg/kg,<17 Mkmol/l
same,pH (urine),[2]; dose 500 mg/kg,6.2 ± 0.3
same,Activity of NOC: Mesencephalon,[3]; Control + Compound,2.60 ± 0.29 pmol/min/mg of protein
same,Activity of NOC: Hypothalamus,[3]; Control + Compound,5.45 ± 0.24 pmol/min/mg of protein
same,Activity of NOC: Mesencephalon,[3]; Control + Morphine + compound,1.83 ± 0.23 pmol/min/mg of protein
same,Activity of NOC: Hypothalamus,[3]; Control + Morphine + compound,5.26 ± 0.28 pmol/min/mg of protein
same,"γ-GTP in blood plasma, Ci",[4]; Control + compound,7.03 ± 2.82 mE/l
same,"ALT in blood plasma, Ci",[4]; Control + compound,113.48 ± 2.39 mE/l
same,"AST in blood plasma, Ci",[4]; Control + compound,173.46 ± 5.63 mE/l
same,"γ-GTP in blood plasma, Ci",[4]; control + Morphine + Compound,10.69 ± 1.84 mE/l
same,"ALT in blood plasma, Ci",[4]; control + Morphine + Compound,121.08 ± 5.04 mE/l
same,"AST in blood plasma, Ci",[4]; control + Morphine + Compound,195.57 ± 18.68 mE/l
